Results as given in article PMC6882465, “Towards discovery of new leishmanicidal scaffolds able to inhibit Leishmania GSK-3” (Journal of Enzyme Inhibition and Medicinal Chemistry, 2019).

molecular target: LdGSK-3 (Leishmania donovani, UniProt A6N857); test: Inhibition of LdGSK-3 with Kinase Glo; type: biochemical; conditions: Table 1; read-out: LdGSK-3 IC50
Sequence (A6N857 entry or part of it): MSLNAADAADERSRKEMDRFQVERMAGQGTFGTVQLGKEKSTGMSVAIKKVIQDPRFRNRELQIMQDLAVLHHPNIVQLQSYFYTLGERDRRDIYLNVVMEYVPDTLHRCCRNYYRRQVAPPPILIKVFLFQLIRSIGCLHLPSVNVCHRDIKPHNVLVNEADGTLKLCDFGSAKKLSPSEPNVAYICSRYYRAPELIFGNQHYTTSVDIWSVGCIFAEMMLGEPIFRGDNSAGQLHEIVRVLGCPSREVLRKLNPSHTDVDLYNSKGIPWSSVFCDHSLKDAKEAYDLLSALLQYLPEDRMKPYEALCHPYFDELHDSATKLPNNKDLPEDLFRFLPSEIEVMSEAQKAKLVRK
Description: Assessment of inhibition of LdGSK-3 with Kinase Glo^TM
The reaction was allowed to proceed for 30 min at 30 °C, then it was incubated at room temperature for another 10 min after addition of Kinase Glo reagents (Promega, Ref. V6712). ATP consumption by LdGSK-3 was measured indirectly through end-point luminescence measurement of each well in a Varioskan Flash microplate reader (Thermo).

Row | SMILES | IC50
1 | O=C1Nc2ccc(S(=O)(=O)O)cc2C1=C1Nc2ccccc2C1=NO [Indirubin-3’-monoxime-5-sulphonic acid, reference compound] | 2400 nM

same assay, conditions: Table S2; 10 µM

Row | SMILES | % inhibition @ 10µM (initial screening on LdGSK3)
2 | O=C(Nc1n[nH]c(-c2ccccn2)n1)C1CC1c1ccccc1 (centres unmarked) [Compound 76] | 5.70±0.50%
3 | CCS(=O)(=O)Nc1ccc(C2=NN(C(=O)c3cccs3)C(c3ccccc3OC)C2)cc1 (centres unmarked) [Compound 108] | 5.15±1.90%
4 | NC(=O)c1cc(NC(=O)c2ccccc2COc2ccccc2)ccc1Cl [Compound 105] | -0.45±1.10%
5 | Cc1ccc2onc(Nc3ccnc(Nc4cccc(S(C)(=O)=O)c4)n3)c2c1.O=C(O)C(F)(F)F [Compound 74] | 10.00±0.75%
6 | Cc1nn(-c2nc3ccccc3[nH]2)c2c1C(c1ccc(O)cc1)CC(=O)N2 (centres unmarked) [Compound 120] | 18.15±1.70%
7 | Cc1cn[nH]c1C1CCCN(Cc2nc3ccccc3n2C)C1 (centres unmarked) [Compound 114] | 2.85±0.45%
8 | Cc1ccc(-c2csc(NC(=O)C=Cc3ccc(S(=O)(=O)N4CCOCC4)cc3)n2)o1 [Compound 69] | 64.27±2.13%
9 | O=C(CN1CCN(c2ccccn2)CC1)Nc1cc(S(=O)(=O)N2CCCCCC2)ccc1Cl [Compound 208] | 10.20±3.25%
10 | Cc1ccc2c(c1)SC(C(=O)Nc1n[nH]c(-c3ccccn3)n1)C2 (centres unmarked) [Compound 115] | 3.20±0.80%
11 | CCc1cc(C(=O)Nc2nccn2-c2ccccc2)cs1 [Compound 93] | -2.35±1.95%
12 | COc1ccc(-c2csc(NC(=O)c3ccc([N+](=O)[O-])s3)n2)cc1OC [Compound 142] | 7.95±2.05%
13 | CC(=O)Nc1ccc(-c2csc(NC(=O)c3ccc([N+](=O)[O-])s3)n2)cc1 [Compound 141] | 8.55±0.55%
14 | CCN(CC)c1nc(Nc2ccncc2)nc2ccccc12 [Compound 36] | 7.10±1.90%
15 | COc1ccc(CNc2nsc3ccccc23)cc1OC [Compound 150] | 13.55±4.65%
16 | COc1ccc(-c2csc(NC(=O)c3ccc([N+](=O)[O-])s3)n2)cc1 [Compound 201] | 18.65±3.35%
17 | Nc1nc(-c2ccccn2)nc(-n2nc(-c3cccc(C(F)(F)F)c3)cc2N)n1.O=C(O)C(F)(F)F [Compound 26] | 4.75±1.20%
18 | O=C(CN(Cc1ccccn1)Cc1ccccn1)NCc1csc(-c2cccs2)n1.O=C(O)C(F)(F)F [Compound 68] | 6.80±1.95%
19 | COCc1cnc2c(c1SCc1c(F)cccc1Cl)c(=O)n(C)c(=O)n2C [Compound 148] | 9.60±3.10%
20 | O=C(CN1CCN(S(=O)(=O)c2cccc([N+](=O)[O-])c2)CC1)Nc1ccc(Oc2ccccc2)cc1 [Compound 152] | -2.95±1.70%
21 | Cc1nn(-c2ccccc2)nc1CNC(=O)CN(Cc1ccccn1)Cc1ccccn1.O=C(O)C(F)(F)F [Compound 144] | 9.10±1.75%
22 | O=C(Nc1nc(-c2ccc(F)cc2)cs1)c1ccc([N+](=O)[O-])s1 [Compound 132] | 8.15±0.95%
23 | COc1ccccc1-n1c(SCC(=O)Nc2ccc3c(c2)OCO3)nc2c(c1=O)SCC2 [Compound 172] | 5.20±2.65%
24 | Cc1nc2c(-c3nc(-c4ccccc4N)n[nH]3)cccn2c1C [Compound 113] | 1.40±0.50%

Row | SMILES | % inhibition @ 10µM (initial screening on LdGSK3)
25 | O=C(COc1nn(-c2ccccc2)c2ncccc12)NCc1ccccc1 [Compound 180] | 17.50±3.45%
26 | NC(=O)c1ccsc1NC(=O)c1ccc([N+](=O)[O-])s1 [Compound 117] | 6.20±1.15%
27 | CC1CN(Cc2ccc(C#N)cc2)CCN1c1ccc(NC(=O)c2ccccc2F)cc1.O=C(O)C(F)(F)F.O=C(O)C(F)(F)F (centres unmarked) [Compound 199] | 8.70±1.75%
28 | Nc1nc(-c2ccccc2)cc(-c2nc3ncccc3[nH]2)n1 [Compound 169] | 32.90±2.70%
29 | c1ccc(-c2nc(NCc3ccco3)c3ccccc3n2)nc1 [Compound 87] | -0.05±0.95%
30 | N#Cc1cccc(CNc2ccc(-c3cnn(CC4CC4)c(=O)c3C#N)cc2)c1 [Compound 63] | -3.20±0.80%
31 | COc1ccc(C2C3CCCCC3(O)CCN2CC(=O)Nc2ccc(Cl)cc2Cl)cc1 (centres unmarked) [Compound 194] | 0.90±4.25%
32 | COc1ccc(-c2cnc(NC(=O)c3cc(-c4ccccn4)n[nH]3)n2C)cc1 [Compound 90] | 6.40±2.45%
33 | Cc1cc2cc(CNc3ccc4c(c3)OCO4)c(=O)n(CCO)c2cc1C [Compound 188] | 20.90±4.45%
34 | CCOc1ccc(CN(C)Cc2nc(N)nc(Nc3ccc(C)cc3)n2)cc1 [Compound 78] | 4.90±1.45%
35 | Cc1nc2c(-c3nc(-c4ccc(N)cc4)n[nH]3)cccn2c1C [Compound 111] | 7.35±4.65%
36 | CCn1c(NC(=O)Cc2ccc(F)cc2)nc2ccccc21 [Compound 138] | 13.00±3.55%
37 | C=CCN(Cc1cccs1)C(=O)CSc1nnc(-c2ccc3c(c2)OCO3)o1 [Compound 206] | 10.00±0.90%
38 | Cn1c(CC(=O)NNC(=O)c2ccc3ccccc3n2)nc2ccccc21 [Compound 80] | 7.95±1.65%
39 | O=C(CSc1nnc(-c2ccc3c(c2)OCO3)o1)N(Cc1ccco1)CC(F)(F)F [Compound 184] | 53.23±3.29%
40 | CC(C)(C)Nc1nc(Nc2ccc3c(c2)CS(=O)(=O)C3)nc2[nH]ccc12 [Compound 103] | 25.85±1.25%
41 | O=C(CN(Cc1ccccn1)Cc1ccccn1)NC1Cc2ccccc2C1.O=C(O)C(F)(F)F [Compound 58] | 3.75±2.40%
42 | N#Cc1ccccc1S(=O)(=O)N1CCN(C(=O)CNC(=O)c2ccc3c(c2)OCO3)CC1 [Compound 82] | 1.90±2.60%
43 | CCOc1cc(NCCCN2CCN(C)CC2)c2ncccc2c1.Cl.Cl.Cl [Compound 112] | 7.50±0.65%
44 | O=C(Nc1ccc(S(=O)(=O)N2CCCC2)cc1)c1ccc([N+](=O)[O-])s1 [Compound 59] | 16.15±4.10%
45 | COc1cc(OC)cc(C(NS(=O)(=O)c2ccc(Cl)c(C(F)(F)F)c2)c2nccn2C)c1 (centres unmarked) [Compound 139] | 15.95±1.70%
46 | CCN(CC)c1nc(N(C)C)nc2c1CN(Cc1ccccc1)CC2 [Compound 146] | 11.85±0.55%
47 | COc1ccc(C2=NCC(CSc3nnc(-c4ccc5c(c4)OCO5)o3)S2)cc1 (centres unmarked) [Compound 125] | 10.60±1.00%

Row | SMILES | % inhibition @ 10µM (initial screening on LdGSK3)
48 | CCOc1ccc2nc(NC(=O)c3ccc([N+](=O)[O-])s3)sc2c1 [Compound 145] | 9.25±0.40%
49 | O=C(c1ccc(Cl)cc1)c1ccc(OC(=O)N2CCOCC2)cc1 [Compound 163] | 3.10±0.70%
50 | COc1ccccc1C(=O)Nc1nnc(-c2ccc3c(c2)OCO3)s1 [Compound 162] | 9.20±3.30%
51 | CC(c1ccc2c(c1)CCCC2)N(C)c1ncc2c(N)nc(N)nc2n1 (centres unmarked) [Compound 62] | 12.10±2.40%
52 | CN(C)S(=O)(=O)c1cccc(CSc2nnc(-c3ccc4c(c3)OCO4)o2)c1 [Compound 167] | 38.45±1.35%
53 | CN(Cc1nc2cccc(C(=O)N3CCN(Cc4ccccc4)CC3)c2[nH]1)C1CCCc2cccnc21.O=C(O)C(F)(F)F (centres unmarked) [Compound 91] | 12.65±6.10%
54 | CCCn1c(NC(=O)CCn2cc(Br)cn2)nc2ccccc21 [Compound 70] | 3.80±1.25%
55 | c1ccc2sc(Nc3nc4ncccc4[nH]3)nc2c1 [Compound 86] | 6.55±2.70%
56 | COc1ccc(C2CC(c3ccc(NS(C)(=O)=O)cc3)=NN2C(=O)c2cccs2)cc1OC (centres unmarked) [Compound 156] | 11.90±1.75%
57 | COc1ccccc1C1CC(c2ccc(NS(C)(=O)=O)cc2)=NN1C(=O)c1cccs1 (centres unmarked) [Compound 195] | 16.55±4.05%
58 | O=C(Nc1cccc(S(=O)(=O)Nc2ccc(Br)cc2)c1)c1ccc([N+](=O)[O-])s1 [Compound 133] | 15.75±4.25%
59 | COc1ccc(NS(=O)(=O)c2cc(NC(=O)c3ccc([N+](=O)[O-])s3)ccc2OC)cc1 [Compound 131] | 19.75±3.70%
60 | OCC1CCCCN1c1cc(-c2ccccn2)nc(Nc2ccccc2)n1 (centres unmarked) [Compound 99] | 0.60±0.60%
61 | Cc1ccc(Nc2nc(C3CCCN3Cc3ccn[nH]3)cs2)nc1 (centres unmarked) [Compound 65] | -0.35±2.35%
62 | Cc1cc(C)n(-c2nc(NC(C)(C)C)nc(N3CCOCC3)n2)n1 [Compound 196] | -2.80±6.35%
63 | COc1cccc(-c2c(C)nn(-c3nc(N)nc(-c4ccccn4)n3)c2N)c1 [Compound 61] | -2.20±1.15%
64 | Oc1c(-c2n[nH]c(Cc3ccc(Cl)cc3)n2)ncc2cccnc12 [Compound 52] | 5.05±2.35%
65 | O=C(Nc1ccccc1)Nc1nc(-c2ccccn2)cs1 [Compound 64] | 1.40±0.95%
66 | Cn1ccnc1-c1nc(NCc2ccccc2Cl)cc(C2CC2)n1.O=C(O)C(F)(F)F [Compound 129] | 8.90±6.75%
67 | Oc1c(-c2n[nH]c(CCc3ccccc3)n2)ncc2cccnc12 [Compound 66] | 0.90±0.90%
68 | Cl.c1ccc(CNc2cccc3ccncc23)cc1 [Compound 126] | 17.10±1.10%
69 | CCS(=O)(=O)c1cccc(C(=O)Nc2nc(-c3ccccn3)cs2)c1 [Compound 165] | 4.70±0.85%

same assay, conditions: assayed at 10 µM

Row | SMILES | percentage of inhibition of LdGSK-3
70 | Cc1ccc(-c2csc(NC(=O)C=Cc3ccc(S(=O)(=O)N4CCOCC4)cc3)n2)o1 [Compound 69] | higher than 50%
71 | O=C(CSc1nnc(-c2ccc3c(c2)OCO3)o1)N(Cc1ccco1)CC(F)(F)F [Compound 184] | higher than 50%
